According to patent US20130109682A1, “CYCLIC ETHER COMPOUNDS USEFUL AS KINASE INHIBITORS” (NOVARTIS AG, priority 2010, published 2013):

Experiments:
PIM1 = PIM1 (Homo sapiens, UniProt P11309); assay: KinaseGlo Pim1 ATP depletion assay; assay type: biochemical
Summary of the method: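 IC50 is derived from residual ATP measured by KinaseGlo Plus luminescence once about half the ATP was consumed. Final conditions were 20 μM ATP, 40 μM BAD peptide and 2.5 nM kinase in HEPES pH 7.5 buffer with MgCl2, DTT and BSA, plus 2.5% DMSO. Compound and enzyme were premixed 15 min before ATP addition.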

PIM2 = PIM2 (Homo sapiens, UniProt Q9P1W9); assay: KinaseGlo Pim2 ATP depletion assay; assay type: biochemical
Summary of the method: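 Compound sat 15 min with enzyme and BAD peptide before ATP was added; final levels 5 nM PIM2, 10 μM peptide, 4 μM ATP, 2.5% DMSO, pH 7.5 HEPES buffer with MgCl2, DTT, BSA. Stopped near 50% ATP consumption; remaining ATP measured by luciferase luminescence.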

PIM3 = PIM3 (Homo sapiens, UniProt Q86V86); assay: KinaseGlo Pim3 ATP depletion assay; assay type: biochemical
Summary of the method: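 Residual ATP was detected by luciferase luminescence once about half had been consumed. The reaction contained 5 nM enzyme, 100 μM BAD peptide (RSRHSSYPAGT) and 40 μM ATP in 50 mM HEPES pH 7.5, 5 mM MgCl2, 1 mM DTT and 0.05% BSA with 2.5% DMSO. Compound and enzyme/peptide were premixed 15 min before ATP.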

GSK3β = GSK3β (Homo sapiens, UniProt P49841); assay: GSK3β ATP depletion assay; assay type: biochemical; conditions: read-out: GSK3b IC50
Summary of the method: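 Kinase activity is read as ATP consumption: luciferase luminescence reports the ATP remaining once roughly half of the 2 μM ATP is used. Reaction mix: 5 nM GSK3β, 10 μM b-CREB peptide, 50 mM Tris pH 7.5, 15 mM MgCl2, 1 mM DTT, 0.1% BSA, 2.5% DMSO. Enzyme and peptide are preincubated 15 min before ATP is added.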

[1] = test system: KMS11 (human myeloma cell line); assay: Cell proliferation assay (CellTiter-Glo), KMS11; assay type: cell-based; conditions: Homo sapiens, KMS-11; KMS11-Luc cells
Summary of the method: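 EC50 derived from CellTiter-Glo luminescence after 3-day exposure at 37° C. Compound was diluted to 2× in medium and added to an equal volume of cells. KMS11 myeloma cells were plated on assay day at 2000/well in IMDM with 10% FBS and sodium pyruvate.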

Chain of PIM1 (P11309 whole entry): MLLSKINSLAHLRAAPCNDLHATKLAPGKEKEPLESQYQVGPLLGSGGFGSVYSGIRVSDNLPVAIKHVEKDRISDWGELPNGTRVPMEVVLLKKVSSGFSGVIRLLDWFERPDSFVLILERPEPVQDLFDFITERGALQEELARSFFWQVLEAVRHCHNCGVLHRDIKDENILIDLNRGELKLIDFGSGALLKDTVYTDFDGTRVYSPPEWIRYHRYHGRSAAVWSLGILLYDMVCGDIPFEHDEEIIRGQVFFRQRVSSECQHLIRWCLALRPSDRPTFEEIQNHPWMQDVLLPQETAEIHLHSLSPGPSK
Chain of GSK3β (P49841 whole entry, species assumed): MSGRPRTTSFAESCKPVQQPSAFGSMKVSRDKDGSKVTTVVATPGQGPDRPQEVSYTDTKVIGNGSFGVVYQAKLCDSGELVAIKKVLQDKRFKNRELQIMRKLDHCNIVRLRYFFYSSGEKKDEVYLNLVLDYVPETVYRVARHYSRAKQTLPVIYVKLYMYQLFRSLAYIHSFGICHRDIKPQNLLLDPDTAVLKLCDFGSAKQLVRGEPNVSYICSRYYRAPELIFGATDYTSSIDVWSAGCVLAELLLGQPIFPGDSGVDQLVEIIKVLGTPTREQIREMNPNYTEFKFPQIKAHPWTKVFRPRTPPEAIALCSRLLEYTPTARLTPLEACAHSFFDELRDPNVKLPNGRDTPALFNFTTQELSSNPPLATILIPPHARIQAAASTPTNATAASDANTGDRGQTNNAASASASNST
Chain of PIM2 (Q9P1W9 whole entry): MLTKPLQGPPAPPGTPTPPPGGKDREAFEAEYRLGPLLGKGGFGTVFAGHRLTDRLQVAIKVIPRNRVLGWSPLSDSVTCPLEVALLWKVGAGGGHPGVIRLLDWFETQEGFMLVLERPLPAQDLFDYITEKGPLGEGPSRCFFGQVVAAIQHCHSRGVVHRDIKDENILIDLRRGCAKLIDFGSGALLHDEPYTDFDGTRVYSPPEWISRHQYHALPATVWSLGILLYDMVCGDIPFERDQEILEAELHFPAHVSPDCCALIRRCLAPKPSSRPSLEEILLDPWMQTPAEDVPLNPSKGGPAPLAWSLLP

Row | SMILES | IC50 (PIM1) | IC50 (PIM2) | IC50 (PIM3) | IC50 (GSK3β) | EC50 [1]
1 | CC[C@@]1(O)[C@H](C)O[C@H](c2ccncc2NC(=O)c2ccc(F)c(-c3c(F)cccc3F)n2)C[C@@H]1O [Example 73, 6-(2,6-difluorophenyl)-N-(4-((2S,4S,5S,6S)-5-ethyl-4,5-dihydroxy-6-methyltetrahydro-2H-pyran-2-yl)pyridin-3-yl)-5-fluoropicolinamide] | 10 nM | 1110 nM | 200 nM | 3230 nM | > 10000 nM
2 | CC[C@H]1O[C@@H](c2ccncc2NC(=O)c2ccc(F)c(-c3c(F)cccc3F)n2)C[C@@H](O)[C@@H]1O [Example 75, 6-(2,6-difluorophenyl)-N-(4-((2R,4R,5S,6R)-6-ethyl-4,5-dihydroxytetrahydro-2H-pyran-2-yl)pyridin-3-yl)-5-fluoropicolinamide] | 1 nM | 4 nM | 2 nM | 228 nM | 2200 nM
3 | O=C(Nc1cnccc1[C@@H]1C[C@@H](O)[C@H](O)[C@@H](CO)O1)c1ccc(F)c(-c2c(F)cccc2F)n1 [Example 78, 6-(2,6-difluorophenyl)-N-(4-((2S,4R,5S,6R)-4,5-dihydroxy-6-(hydroxymethyl)tetrahydro-2H-pyran-2-yl)pyridin-3-yl)-5-fluoropicolinamide] | 127 nM | 2520 nM | 151 nM | 5820 nM | 1500 nM
4 | O=C(Nc1cnccc1C1=C[C@@H](O)[C@H](O)[C@@H](CO)O1)c1ccc(F)c(-c2c(F)cccc2F)n1 [Example 79, 6-(2,6-difluorophenyl)-N-(4-((2R,3S,4R)-3,4-dihydroxy-2-(hydroxymethyl)-3,4-dihydro-2H-pyran-6-yl)pyridin-3-yl)-5-fluoropicolinamide] | 2 nM | 17 nM | 3 nM | 1450 nM | > 10000 nM
5 | O=C(Nc1cnccc1[C@H]1C[C@@H](O)[C@H](O)[C@@H](CO)O1)c1csc(-c2c(F)cccc2F)n1 [Example 80, 2-(2,6-difluorophenyl)-N-(4-((2R,4R,5S,6R)-4,5-dihydroxy-6-(hydroxymethyl)tetrahydro-2H-pyran-2-yl)pyridin-3-yl)thiazole-4-carboxamide] | 44 nM | 4920 nM | 171 nM | 1230 nM | > 10000 nM
6 | O=C(Nc1cnccc1[C@H]1C[C@@H](O)[C@H](O)[C@@H](CO)O1)c1ccc(F)c(-c2c(F)cccc2F)n1 [Example 83, 6-(2,6-difluorophenyl)-N-(4-((2R,4R,5S,6R)-4,5-dihydroxy-6-(hydroxymethyl)tetrahydro-2H-pyran-2-yl)pyridin-3-yl)-5-fluoropicolinamide] | 19 nM | 291 nM | 32 nM | 2800 nM | > 10000 nM
7 | CC1(C)O[C@@H](c2ccncc2NC(=O)c2csc(-c3c(F)cccc3F)n2)C[C@H](O)[C@@H]1O [Example 88, 2-(2,6-difluorophenyl)-N-(4-((2R,4S,5S)-4,5-dihydroxy-6,6-dimethyltetrahydro-2H-pyran-2-yl)pyridin-3-yl)thiazole-4-carboxamide] | 1 nM | 80 nM | 5 nM | 10 nM | 9700 nM
8 | CC1(C)O[C@@H](c2ccncc2NC(=O)c2ccc(F)c(-c3c(F)cccc3F)n2)C[C@H](O)[C@@H]1O [Example 89, 6-(2,6-difluorophenyl)-N-(4-((2R,4S,5S)-4,5-dihydroxy-6,6-dimethyltetrahydro-2H-pyran-2-yl)pyridin-3-yl)-5-fluoropicolinamide] | 1 nM | 6 nM | 2 nM | 88 nM | 2400 nM
9 | CC1(C)O[C@H](c2ccncc2NC(=O)c2csc(-c3c(F)cccc3F)n2)C[C@@H](O)[C@H]1O [Example 90, 2-(2,6-difluorophenyl)-N-(4-((2S,4R,5R)-4,5-dihydroxy-6,6-dimethyltetrahydro-2H-pyran-2-yl)pyridin-3-yl)thiazole-4-carboxamide] | 5 nM | 500 nM | 31 nM | 46 nM | 4000 nM
10 | CC1(C)O[C@H](c2ccncc2NC(=O)c2ccc(F)c(-c3c(F)cccc3F)n2)C[C@@H](O)[C@H]1O [Example 91, 6-(2,6-difluorophenyl)-N-(4-((2S,4R,5R)-4,5-dihydroxy-6,6-dimethyltetrahydro-2H-pyran-2-yl)pyridin-3-yl)-5-fluoropicolinamide] | 3 nM | 47 nM | 13 nM | 171 nM | 7100 nM
11 | C[C@H]1O[C@@H](c2ccncc2NC(=O)c2cccc(-c3ccccc3F)n2)C[C@@H](O)[C@]1(C)O [Example 92, N-(4-((2R,4R,5S,6R)-4,5-dihydroxy-5,6-dimethyltetrahydro-2H-pyran-2-yl)pyridin-3-yl)-6-(2-fluorophenyl)picolinamide] | 1 nM | 16 nM | 2 nM | 125 nM | > 10000 nM
12 | C[C@H]1O[C@@H](c2ccncc2NC(=O)c2ccc(F)c(-c3ccccc3F)n2)C[C@@H](O)[C@]1(C)O [Example 93, N-(4-((2R,4R,5S,6R)-4,5-dihydroxy-5,6-dimethyltetrahydro-2H-pyran-2-yl)pyridin-3-yl)-5-fluoro-6-(2-fluorophenyl)picolinamide] | 1 nM | 59 nM | 5 nM | 117 nM | > 10000 nM
13 | O=C(Nc1cnccc1[C@@H]1OCC[C@H](CO)O1)c1csc(-c2c(F)cccc2F)n1 [Example 99, 2-(2,6-difluorophenyl)-N-(4-((2R,4R)-4-(hydroxymethyl)-1,3-dioxan-2-yl)pyridin-3-yl)thiazole-4-carboxamide] | 14 nM | 3380 nM | 75 nM | 3170 nM | > 10000 nM
14 | O=C(Nc1cnccc1[C@@H]1OCC[C@H](CO)O1)c1ccc(F)c(-c2c(F)cccc2F)n1 [Example 100, 6-(2,6-difluorophenyl)-5-fluoro-N-(4-((2R,4R)-4-(hydroxymethyl)-1,3-dioxan-2-yl)pyridin-3-yl)picolinamide] | 10 nM | 799 nM | 42 nM | 2470 nM | > 10000 nM
15 | O=C(Nc1cnccc1[C@H]1OC[C@H](CO)O1)c1ccc(F)c(-c2c(F)cccc2F)n1 [Example 101, 6-(2,6-difluorophenyl)-5-fluoro-N-(4-((2S,4S)-4-(hydroxymethyl)-1,3-dioxolan-2-yl)pyridin-3-yl)picolinamide] | 12 nM | 1340 nM | 68 nM | 2600 nM | > 10000 nM
16 | O=C(Nc1cnccc1[C@H]1OCC[C@@H](CO)O1)c1csc(-c2c(F)cccc2F)n1 [Example 102, 2-(2,6-difluorophenyl)-N-(4-((2S,4S)-4-(hydroxymethyl)-1,3-dioxan-2-yl)pyridin-3-yl)thiazole-4-carboxamide] | 28 nM | 2890 nM | 103 nM | 2000 nM | > 10000 nM
17 | O=C(Nc1cnccc1[C@H]1OCC[C@@H](CO)O1)c1ccc(F)c(-c2c(F)cccc2F)n1 [Example 103, 6-(2,6-difluorophenyl)-5-fluoro-N-(4-((2S,4S)-4-(hydroxymethyl)-1,3-dioxan-2-yl)pyridin-3-yl)picolinamide] | 11 nM | 502 nM | 27 nM | 2420 nM | > 10000 nM
